The values below come from patent US8975398B2, “NAMPT inhibitors” (AbbVie Inc., priority 2012, dated 2015).

SMILES strings stand for the structures. Where only a bound is given, the exact number is not on record here.

Assay [1] has as its target NAMPT (human, recombinant, C-terminally His-tagged) (Homo sapiens, UniProt P43490). The assay can be described thus: Time-Resolved Fluorescence Resonance Energy Transfer (TR-FRET) Binding Assay of NAMPT. The settings on record: 6.8 nM NAMPT, 200 nM probe, equilibrated 3 hours, absence of substrates. The essentials: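 Recombinant C-terminally His-tagged human NAMPT (6.8 nM) incubated 3 h at room temperature with 200 nM Oregon Green 488–labelled nicotinamide-competitive probe and 1 nM Tb-anti-His antibody in HEPES pH 7.5, 2% DMSO. TR-FRET ratio Em520/Em495 normalized to controls; IC50 from four-parameter logistic fit.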

The next assay deals with NAMPT (Homo sapiens, UniProt P43490). Nature of the assay: Time-Resolved Fluorescence Resonance Energy Transfer (TR-FRET) Binding Assay of NAMPT with PRPP. Particulars: 2 nM NAMPT, 2 nM probe, 200 uM PRPP and 2.5 mM ATP, equilibrated 16 hours. The essentials: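 Final mix: 2 nM NAMPT, 2 nM probe, 1 nM Tb-anti-His antibody, 200 uM PRPP, 2.5 mM ATP, 2% DMSO in 1× assay buffer. Equilibrated 16 hours before TR-FRET read, allowing possible enzymatic modification of compounds.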
Sequence of NAMPT (P43490 whole entry): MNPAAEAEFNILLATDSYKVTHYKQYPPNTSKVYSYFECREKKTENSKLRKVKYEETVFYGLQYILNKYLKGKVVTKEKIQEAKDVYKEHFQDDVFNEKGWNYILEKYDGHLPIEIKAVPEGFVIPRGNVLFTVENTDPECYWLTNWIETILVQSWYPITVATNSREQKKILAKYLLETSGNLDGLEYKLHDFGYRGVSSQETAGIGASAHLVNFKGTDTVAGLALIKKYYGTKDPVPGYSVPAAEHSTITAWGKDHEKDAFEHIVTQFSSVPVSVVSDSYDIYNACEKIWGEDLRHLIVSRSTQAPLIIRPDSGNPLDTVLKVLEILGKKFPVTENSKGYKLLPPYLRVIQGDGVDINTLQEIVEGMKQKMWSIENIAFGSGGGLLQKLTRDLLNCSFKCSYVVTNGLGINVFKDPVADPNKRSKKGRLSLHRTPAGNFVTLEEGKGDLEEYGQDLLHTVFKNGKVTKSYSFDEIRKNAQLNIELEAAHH

Another assay relates to PC3 cells. Nature of the assay: NAMPT Cell Proliferation Assay (Cell Titer Glo; also performed in the presence of 0.3 mM nicotinamide mononucleotide). The format is cell-based. The settings on record: 5 days incubation, cell viability by Cell Titer Glo. The protocol: NAMPT Cell Proliferation Assay
PC3 cells were seeded in 96-well black plates (Corning #3904) at 500 cells/well in 90 μl of RPMI media containing 10% heat-inactivated FBS and incubated overnight at 37° C. and 5% CO2 to allow cells to attach to wells. The following day, test compounds were serially diluted in neat DMSO to 1000× final concentrations prior to dilution with RPMI media to 10× and 1% DMSO. Ten μL of the 10× compounds were then transferred to wells containing cells to produce a dose response of 10-fold dilutions from 10 μM to 1×10^−5 μM. Cells were incubated for 5 days at 37° C. and 5% CO2, then cell viability was measured using Cell Titer Glo reagent (Promega #G7571). Percent inhibition values were calculated and fitted to a sigmoidal dose response curves using Assay Explorer software to determine IC50s.

Sequence of NAMPT (human, recombinant, C-terminally His-tagged) (P43490 whole entry): as above

`O=C(Nc1ccc(C2CCN(C(=O)Cc3cccc(F)c3)CC2)cc1)C1CN(c2cccnn2)C1` [Example 367, N-(4-{1-[(3-fluorophenyl)acetyl]piperidin-4-yl}phenyl)-1-(pyridazin-3-yl)azetidine-3-carboxamide]: the IC50 in assay [1] was determined as 0.0337 µM; at NAMPT it was 0.000735 µM. Consider `O=C(Nc1ccc(C2CCN(C(=O)Cc3ccc(F)cc3)CC2)cc1)C1CN(c2cccnn2)C1` [Example 368, N-(4-{1-[(4-fluorophenyl)acetyl]piperidin-4-yl}phenyl)-1-(pyridazin-3-yl)azetidine-3-carboxamide], for which the 50% inhibitory concentration (IC50) in assay [1] is 0.064 µM; on NAMPT, 0.000635 µM. Consider `O=C(Nc1ccc(C2CCN(C(=O)Cc3ccccc3Cl)CC2)cc1)C1CN(c2cccnn2)C1` [Example 369, N-(4-{1-[(2-chlorophenyl)acetyl]piperidin-4-yl}phenyl)-1-(pyridazin-3-yl)azetidine-3-carboxamide], for which the half-maximal inhibitory concentration (IC50) in assay [1] is 0.0183 µM; on NAMPT it was 0.000479 µM.

As to `O=C(Nc1ccc(C2CCN(C(=O)Cc3ccc(Cl)cc3)CC2)cc1)C1CN(c2cccnn2)C1` [Example 370, N-(4-{1-[(4-chlorophenyl)acetyl]piperidin-4-yl}phenyl)-1-(pyridazin-3-yl)azetidine-3-carboxamide], the values for the IC50 (in assay [1]; at NAMPT) were 0.0305 µM and 0.000555 µM, respectively. `O=C(Nc1ccc(C2CCN(C(=O)Cc3ccc(C(F)(F)F)cc3)CC2)cc1)C1CN(c2cccnn2)C1` [Example 371, 1-(pyridazin-3-yl)-N-[4-(1-{[4-(trifluoromethyl)phenyl]acetyl}piperidin-4-yl)phenyl]azetidine-3-carboxamide]: the 50% inhibitory concentration (IC50) worked out at 0.0567 µM in assay [1] and 0.000438 µM on NAMPT. The matching figures for `Cc1cc(C)cc(CC(=O)N2CCC(c3ccc(NC(=O)C4CN(c5cccnn5)C4)cc3)CC2)c1` [Example 372, N-(4-{1-[(3,5-dimethylphenyl)acetyl]piperidin-4-yl}phenyl)-1-(pyridazin-3-yl)azetidine-3-carboxamide]: 0.0166 µM and 0.000633 µM. The matching figures for `O=C(Nc1ccc(C2CCN(C(=O)Cc3cc(F)ccc3F)CC2)cc1)C1CN(c2cccnn2)C1` [Example 373, N-(4-{1-[(2,5-difluorophenyl)acetyl]piperidin-4-yl}phenyl)-1-(pyridazin-3-yl)azetidine-3-carboxamide]: 0.0224 µM and 0.000576 µM. The matching figures for `O=C(Nc1ccc(C2CCN(C(=O)Cc3ccc(Cl)c(Cl)c3)CC2)cc1)C1CN(c2cccnn2)C1` [Example 374, N-(4-{1-[(3,4-dichlorophenyl)acetyl]piperidin-4-yl}phenyl)-1-(pyridazin-3-yl)azetidine-3-carboxamide]: 0.0239 µM and 0.000973 µM. `O=C(Nc1ccc(C2CCN(C(=O)c3ccoc3)CC2)cc1)C1CN(c2cccnn2)C1` [Example 375, N-{4-[1-(furan-3-ylcarbonyl)piperidin-4-yl]phenyl}-1-(pyridazin-3-yl)azetidine-3-carboxamide]: the half-inhibitory concentration (IC50) came out at 0.00672 µM in assay [1] and 0.000679 µM at NAMPT. Consider `O=C(Nc1ccc(C2CCN(C(=O)c3cccs3)CC2)cc1)C1CN(c2cccnn2)C1` [Example 376, 1-(pyridazin-3-yl)-N-{4-[1-(thiophen-2-ylcarbonyl)piperidin-4-yl]phenyl}azetidine-3-carboxamide], for which the values for the IC50 (in assay [1]; on NAMPT) were 0.00322 µM and 0.000468 µM, respectively. In the same order, the values of `Cc1ccc(C(=O)N2CCC(c3ccc(NC(=O)C4CN(c5cccnn5)C4)cc3)CC2)s1` [Example 377, N-(4-{1-[(5-methylthiophen-2-yl)carbonyl]piperidin-4-yl}phenyl)-1-(pyridazin-3-yl)azetidine-3-carboxamide] are 0.0162 µM and 0.000632 µM. The matching figures for `Cc1cnc(C(=O)N2CCC(c3ccc(NC(=O)C4CN(c5cccnn5)C4)cc3)CC2)cn1` [Example 378, N-(4-{1-[(5-methylpyrazin-2-yl)carbonyl]piperidin-4-yl}phenyl)-1-(pyridazin-3-yl)azetidine-3-carboxamide]: 0.0771 µM and 0.000632 µM. The matching figures for `CC1(C(=O)N2CCC(c3ccc(NC(=O)C4CN(c5cccnn5)C4)cc3)CC2)CC1` [Example 379, N-(4-{1-[(1-methylcyclopropyl)carbonyl]piperidin-4-yl}phenyl)-1-(pyridazin-3-yl)azetidine-3-carboxamide]: 0.0159 µM and 0.000432 µM. As to `CCOCCC(=O)N1CCC(c2ccc(NC(=O)C3CN(c4cccnn4)C3)cc2)CC1` [Example 380, N-{4-[1-(3-ethoxypropanoyl)piperidin-4-yl]phenyl}-1-(pyridazin-3-yl)azetidine-3-carboxamide], the values for the IC50 (in assay [1]; at NAMPT) were 0.109 µM and 0.000883 µM, respectively.

Take `O=C(Nc1ccc(C2CCN(C(=O)C3(c4ccccc4)CC3)CC2)cc1)C1CN(c2cccnn2)C1` [Example 381, N-(4-{1-[(1-phenylcyclopropyl)carbonyl]piperidin-4-yl}phenyl)-1-(pyridazin-3-yl)azetidine-3-carboxamide]: the values for the 50% inhibitory concentration (IC50) (in assay [1]; on NAMPT) were 0.0151 µM and 0.00113 µM, respectively. On to `O=C(Nc1ccc(C2CCN(C(=O)CSc3ncccn3)CC2)cc1)C1CN(c2cccnn2)C1` [Example 382, 1-(pyridazin-3-yl)-N-(4-{1-[(pyrimidin-2-ylsulfanyl)acetyl]piperidin-4-yl}phenyl)azetidine-3-carboxamide], for which the IC50 in assay [1] was 0.0658 µM; at NAMPT it was 0.000657 µM. On to `CC(=O)N1CCC(C(=O)N2CCC(c3ccc(NC(=O)C4CN(c5cccnn5)C4)cc3)CC2)CC1` [Example 383, N-(4-{1-[(1-acetylpiperidin-4-yl)carbonyl]piperidin-4-yl}phenyl)-1-(pyridazin-3-yl)azetidine-3-carboxamide], for which the values for the 50% inhibitory concentration (IC50) (in assay [1]; at NAMPT) were 0.103 µM and 0.000859 µM, respectively. The matching figures for `O=C(Nc1ccc(C2CCN(C(=O)Cc3cc(F)cc(F)c3)CC2)cc1)C1CN(c2cccnn2)C1` [Example 384, N-(4-{1-[(3,5-difluorophenyl)acetyl]piperidin-4-yl}phenyl)-1-(pyridazin-3-yl)azetidine-3-carboxamide]: 0.0288 µM and 0.000497 µM. The matching figures for `CC(=O)N[C@@H](CC(C)C)C(=O)N1CCC(c2ccc(NC(=O)C3CN(c4cccnn4)C3)cc2)CC1` [Example 385, N-{4-[1-(N-acetyl-L-leucyl)piperidin-4-yl]phenyl}-1-(pyridazin-3-yl)azetidine-3-carboxamide]: 0.0551 µM and 0.00124 µM.

`CC(C)C(=O)N1CCC(c2ccc(NC(=O)C3CN(c4ccnnc4)C3)cc2)CC1` [Example 528, N-{4-[1-(2-methylpropanoyl)piperidin-4-yl]phenyl}-1-(pyridazin-4-yl)azetidine-3-carboxamide]: the concentration for half-maximal inhibition (IC50) was 0.0262 µM in assay [1] and 0.0173 µM on NAMPT. For `Cc1ccccc1C(=O)N1CC(c2ccc(NC(=O)[C@H]3CCN(c4cccnn4)C3)cc2)C1` [Example 791], the half-maximal inhibitory concentration (IC50) in the assay with PC3 cells was 0.00748 µM. Take `CC1(Cn2cc(-c3ccc(NC(=O)C4CN(c5cccnn5)C4)cc3)cn2)CCNCC1` [Example 873, N-(4-{1-[(4-methylpiperidin-4-yl)methyl]-1H-pyrazol-4-yl}phenyl)-1-(pyridazin-3-yl)azetidine-3-carboxamide]: the IC50 in the assay on PC3 cells (Homo sapiens, PC-3, 120 h) was determined as 0.675 µM.

Turning to `Cn1nc(C(F)(F)F)cc1-c1ccc(NC(=O)C2CN(c3cccnn3)C2)cc1` [Example 874, N-{4-[1-methyl-3-(trifluoromethyl)-1H-pyrazol-5-yl]phenyl}-1-(pyridazin-3-yl)azetidine-3-carboxamide], the half-inhibitory concentration (IC50) with PC3 cells (Homo sapiens, PC-3, 120 h) was found to be 0.0711 µM. Same read-out and setting: to `CC(C)(C)Cn1cc(-c2ccc(NC(=O)C3CN(c4ccc(Cl)nn4)C3)cc2)cn1` [Example 875, 1-(6-chloropyridazin-3-yl)-N-{4-[1-(2,2-dimethylpropyl)-1H-pyrazol-4-yl]phenyl}azetidine-3-carboxamide] belongs greater than 10 µM; to `Cc1ccc(N2CC(C(=O)Nc3ccc(C4CCN(C(=O)c5ccccc5)CC4)cc3)C2)cn1` [Example 876, N-[4-(1-benzoylpiperidin-4-yl)phenyl]-1-(6-methylpyridin-3-yl)azetidine-3-carboxamide], 0.0292 µM. For the compound `CC1(Cn2cc(-c3ccc(NC(=O)C4CN(c5cccnc5)C4)cc3)cn2)CCNCC1` [Example 877, N-(4-{1-[(4-methylpiperidin-4-yl)methyl]-1H-pyrazol-4-yl}phenyl)-1-(pyridin-3-yl)azetidine-3-carboxamide], the IC50 in the assay on PC3 cells (Homo sapiens, PC-3, 120 h) was 0.0296 µM.

Turning to `Cc1ccc(N2CC(C(=O)Nc3ccc(-c4cnn(CC(C)(C)C)c4)cc3)C2)nn1` [Example 878, N-{4-[1-(2,2-dimethylpropyl)-1H-pyrazol-4-yl]phenyl}-1-(6-methylpyridazin-3-yl)azetidine-3-carboxamide], in the assay with PC3 cells (Homo sapiens, PC-3, 120 h), the 50% inhibitory concentration (IC50) was 0.0706 µM.
